Measured values as given in US20250195490A1, “ALPHA-METHYLENE AND AMINOMETHYL LACTONES AND LACTAMS FOR TREATMENT OF CLOSTRIDIOIDES DIFFICILE INFECTION (CDI)” (Purdue Research Foundation, priority 2022, published 2025).

Legend:
[1] = test system: E. faecium; assay: Broth microdilution against vancomycin-resistant E. faecium; type: cell-based, Enterococcus faecium; settings: gradient 128 to 1 μg/mL
Description: (§1) Method: The minimum inhibitory concentration (MIC) of the compounds and control drugs, linezolid (antibiotic), vancomycin (antibiotic), 5-fluorocytosine (5-FC, antifungal drug), and fluconazole (antifungal drug) was determined using the broth microdilution method according to the guidelines outlined by the Clinical and Laboratory Standards Institute (CLSI) against clinically relevant bacterial (methicillin-resistant Staphylococcus aureus (MRSA), vancomycin-resistant Enterococcus faecalis (VRE), vancomycin-resistant Enterococcus faecium (VRE), Clostridioides difficile and Escherichia coli) and fungal (Candida albicans) strains. A solution equivalent to 0.5 McFarland standard was prepared from each strain and diluted in cation-adjusted Mueller-Hinton broth (for S. aureus and E. coli), tryptone soy broth (for E. faecalis), or brain heart infusion broth (for E. faecium) to achieve a bacterial inoculum of about 5×10^5 CFU/mL. C. difficile strains were cultured in brain heart infusion broth supplemented with hemin and vitamin K. C. albicans was diluted in RPMI medium supplemented with 3-(N-morpholino) propanesulfonic acid to achieve a fungal concentration of about 1.5×10^3 CFU/mL. Compounds and control drugs were added in the first row of the 96-well plates and diluted with media containing bacteria (to achieve a concentration gradient ranging from 128 to 1 μg/mL). For MRSA, VRE, and E. coli strains, plates were then incubated aerobically at 37° C. for at least 18 hours. C. albicans was incubated aerobically at 37° C. for 24 hours. Plates containing C. difficile were incubated anaerobically at […] for 48 hours.

[2] = test system: C. difficile ATCC 43255; assay: CDI mouse recurrence model; type: in vivo, C57BL/6 mice; settings: for signs of disease during therapy / survival by day 11: 10 mg/kg daily for 5 days
Description: For mouse recurrence, two models were used for testing the efficacy of aminomethyllactone 27 for preventing recurrence after treatment with vancomycin. The two models used were A—Chen et al model and B— a more aggressive protocol that was developed using modified Chen et al. protocol antibiotic cocktail (applying 3× times the doses of the antibiotics). In brief, groups of 12-weeks-old female C57BL/6 mice were sensitized to CDI by giving either the antibiotic cocktail described above or 3× the dose of antibiotics cocktail in the drinking water for 5 days. Then mice were treated with clindamycin (10 mg/kg) two days after withdrawal of the antibiotic cocktail. One day after clindamycin treatment, mice were infected orally with 1.9×10^6 CFU spore suspension of C. difficile ATCC 43255 [32]. Two hours after infection, animals were divided into groups (n=10), and groups received either Compound 27 (10 mg/kg) or vancomycin (10 mg/kg) by gavage daily for 5 days. Treatment was stopped at day 5, and mice were monitored for an additional 23 days. […] However, from day 9 onward (4 days after vancomycin was discontinued), vancomycin-treated mice developed CDI. By day 11, only 60% of the mice treated with vancomycin had survived in the original protocol (lx antibiotic), and there was 0% survival in the aggressive antibiotic protocol (3× antibiotic). […] Symptomatic recurrence of CDI occurs in approximately 20% of patients and is challenging to treat. In addition to subsequent prolongation of C. difficile shedding and transmission, 1 out of every 5 patients with CDI, who experienced a recurrence of the infection, died within 30 days of diagnosis. Compound 27, which reduces recurrences, can potentially prolong the clinical utility of current antibiotics (vancomycin and fidaxomicin).

[3] = test system: E. coli (TolC mutant); assay: MIC by broth microdilution against E. coli (TolC mutant); type: cell-based, Escherichia coli; settings: aerobic, 37° C., at least 18 hours
Description: as §1

[4] = test system: Caco-2 cells; assay: In vitro cytotoxicity (MTS assay) against Caco-2 cells; settings: tested at 32, 64 and 128 μg/mL, two hours
Description: Percent viable mammalian cells (measured as average absorbance ratio (test agent relative to DMSO) for cytotoxicity analysis of the compounds (tested in triplicate) at 32, 64 and 128 μg/mL against Caco-2 cells using the MTS 3-(4,5-dimethylthiazol-2-yl)-5-(3-carboxymethoxyphenyl)-2-(4-sulfophenyl)-2H-tetrazolium) assay. Dimethyl sulfoxide (DMSO) was used as a negative control to determine a baseline measurement for the cytotoxic impact of each compound. The absorbance values represent an average of a minimum of three samples analyzed for each compound. Error bars represent standard deviation values for the absorbance values. A two-way ANOVA, with post hoc Dunnet's multiple comparisons test, determined statistical difference (denoted by the asterisk, *) (P<0.05) between the values obtained for each compound and DMSO (negative control, used as solvent for the compounds). […]
Method: Compounds were assayed (at concentrations of 32, 64 and 128 μg/mL) against a human colorectal (Caco-2) cell line to determine the potential toxic effect to mammalian cells in vitro. […] Absorbance readings (at OD490) were taken using a kinetic microplate reader (Molecular Devices, Sunnyvale, CA, USA). The quantity of viable cells after treatment with each compound was expressed as a percentage of the viability of DMSO-treated control cells (average of triplicate wells±standard deviation). […]

[5] = test system: C. albicans; assay: Broth microdilution against Candida albicans; type: cell-based; settings: gradient 128 to 1 μg/mL, 24 hours
Description: as §1

In the case of COc1cc(C2OC(=O)C(CN3CCCCC3)C2c2ccccc2Br)ccc1OCc1ccccc1 (racemic) [Compound 27], the “inhibition of the tested strains of E. faecium” value [1] is reported as “did not inhibit”, the “signs of disease during therapy” value [2] is reported as “no signs of disease” and the survival of mice ([2]; 28 days, 10 mg/kg oral daily for 5 days) is reported as 100%. The “recurrence of CDI” value ([2]; for 28 days, 10 mg/kg oral daily for 5 days) was “no recurrence”, the “MIC E. coli (TolC mutant)” value [3] was greater than 128 µg/mL and the “concentration up to which non-toxic to Caco-2 cells” value [4] was 128 µg/mL. The “activity against C. albicans” value [5] was “inactive”.

For C=C1C(=O)O[C@H](c2ccccc2O)[C@@H]1c1cccc(C#N)c1 (racemic) [Compound 50], the “inhibition of the tested strains of E. faecium” value [1] was “did not inhibit”, the “MIC E. coli (TolC mutant)” value [3] was greater than 128 µg/mL and the “concentration up to which non-toxic to Caco-2 cells” value [4] was 32 µg/mL. For the same molecule, the “activity against C. albicans” value [5] was “inactive”.

CN[C@H](CC(C)C)C(=O)N[C@H]1C(=O)N[C@@H](CC(N)=O)C(=O)N[C@H]2C(=O)N[C@H]3C(=O)N[C@H](C(=O)N[C@H](C(=O)O)c4cc(O)cc(O)c4-c4cc3ccc4O)[C@H](O)c3ccc(c(Cl)c3)Oc3cc2cc(c3O[C@@H]2O[C@H](CO)[C@@H](O)[C@H](O)[C@H]2O[C@H]2C[C@](C)(N)[C@H](O)[C@H](C)O2)Oc2ccc(cc2Cl)[C@H]1O [Vancomycin, reference compound] was tested, and the “signs of disease during therapy” value [2] was “no signs of disease”, the “survival by day 11” value ([2]; aggressive antibiotic protocol (3× antibiotic)) was 0% and the “survival by day 11” value ([2]; original protocol (1x antibiotic)) was 60%. The “day from which treated mice developed CDI” value ([2]; treatment stopped at day 5) was no less than 9 days.
